Measured values from patent US5276170A, “Azido-substituted aromatic amino acids” (The United States of America as represented by the …, priority 1992, dated 1994).
Read-outs that look alike come from different tables or passages of the source.

Columns and labels:
PC12 cells [1] = experiment: Effect on PC12 cell growth ([3H]thymidine and [3H]leucine incorporation over 5 days); assay type: cell-based; conditions: presence and absence of NGF
Description: Cell growth was estimated both visually and by the incorporation of [^3 H]thymidine and [^3 H]leucine over a period of 5 days in the presence and absence of nerve growth factor, 50 nanogm/well (NGF-7S was obtained from Boehringer Mannheim Biochemicals, Indianapolis, Ind.; labeled amino acids and thymidine were obtained from New England Nuclear, Boston, Mass.). On day one, compound 1 was added in concentrations ranging from 0.005 to 1.5 mM. Less than 10% inhibition in isotope-incorporation was observed between control and cultures over the five day period.

PC12 cells [2] = experiment: Incorporation of tyrosine, leucine and thymidine into PC12 cells; assay type: cell-based; conditions: for inhibition at 1000 µM: Rattus norvegicus
Description: The incorporation (2 μCi/well) of [^14 CU]tyrosine, [^3 H]thymidine were measured in the presence and absence of 2-azidotyrosine (1.0 mM) over a period of 72 hours. PC12 cells were grown as monolayers in 150 cm^2 tissue culture flasks at 37° C. in 6% CO2 in Dulbecco's modified Eagle's medium supplemented with 7% fetal bovine serum, 7% horse serum, and 100 μg streptomycin and 100 units of penicillin per ml. The cells were split after 3 days and aliquots (2 ml) transferred to 6 well culture plates. 2-Azidotyrosine (final concentration, 1 mM), [^14 CU] tyrosine (2 μCi/well), [^3 H]leucine (2 μCi/well), and [^3 H]thymidine (2 μCi/well) were added in 0.5 ml solutions in cell media. The final volume of each well was adjusted to 3.0 ml. The cultures were incubated in the dark at 37° C. in 6% CO2 for 12, 24, 48 and 72 hrs. Cells were removed and transferred to conical tubes (10 ml), sedimented by centrifugation, and washed 3X with phosphate buffered saline, pH 7.2. The cell sediment was dissolved in 0.5 ml of a solution of 0.5N NAOH containing 1% SDS over a period of 30 min., neutralized with 0.5 ml 0.5N HCl, and the isotope content measured by scintillation spectrometry. The results are expressed at the mean±SEM for 3 wells for each set of conditions.

tyrosine phenol-lyase = tyrosine phenol-lyase (Citrobacter freundii, UniProt P31013); experiment: Tyrosine phenol-lyase catalyzed hydrolytic cleavage to ammonium pyruvate and 3-azidophenol; assay type: biochemical; conditions: as substrate; % of Vmax of L-tyrosine
[3] = test system: mushroom tyrosinase (sigma); experiment: Mushroom tyrosinase oxidation (UV/visible spectra; dopaquinone production at 480 nm); assay type: biochemical
Description: Thus, compound 1 is apparently able to bind strongly to mushroom tyrosinase.

Chain of tyrosine phenol-lyase (P31013 whole entry, species assumed): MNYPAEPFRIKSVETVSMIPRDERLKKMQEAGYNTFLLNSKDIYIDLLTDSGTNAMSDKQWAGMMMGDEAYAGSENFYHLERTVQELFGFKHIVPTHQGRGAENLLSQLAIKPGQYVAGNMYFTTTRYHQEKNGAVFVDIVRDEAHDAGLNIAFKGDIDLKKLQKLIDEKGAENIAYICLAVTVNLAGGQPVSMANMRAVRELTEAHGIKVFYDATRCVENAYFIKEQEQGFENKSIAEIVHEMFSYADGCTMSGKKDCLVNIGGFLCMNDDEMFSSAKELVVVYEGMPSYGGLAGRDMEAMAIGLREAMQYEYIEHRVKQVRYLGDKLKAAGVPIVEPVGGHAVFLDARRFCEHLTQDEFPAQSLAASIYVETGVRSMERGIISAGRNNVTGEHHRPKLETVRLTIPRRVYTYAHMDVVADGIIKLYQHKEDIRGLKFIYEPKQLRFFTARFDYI

[N-]=[N+]=Nc1cc(O)ccc1C[C@H](N)C(=O)O [compound 1, 2-azido-L-tyrosine]
inhibition in isotope-incorporation (PC12 cells [1]; 0.005 to 1.5 mM, [3H]thymidine and [3H]leucine, five day period): Less than 10% | growth of PC12 cells (PC12 cells [1]; maximum concentration 1.5 mM, 5 days): did not significantly inhibit | incorporation of [3H]leucine (PC12 cells [2]; 1.0 mM, up to 72 hrs): not significantly different from control | inhibition at 1000 µM (PC12 cells [2]; PC-12, 1.0 mM, 24 hours, read-out: inhibition of [3H]thymidine incorporation): 34% | inhibition at 1000 µM (PC12 cells [2]; PC-12, 1.0 mM, 72 hours, read-out: inhibition of [3H]thymidine incorporation): 24% | inhibition at 1000 µM (PC12 cells [2]; PC-12, 24 h, 1.0 mM, 24 hrs, compared to untreated controls, read-out: inhibition of [14CU]tyrosine incorporation): ~58% | inhibition at 1000 µM (PC12 cells [2]; PC-12, 72 h, 1.0 mM, 72 hrs, compared to untreated controls, read-out: inhibition of [14CU]tyrosine incorporation): ~38% | Vmax (relative to that of L-tyrosine) (tyrosine phenol-lyase): 18% | lag period before oxidation of L-tyrosine ([3]; 0.1 mM, equimolar L-tyrosine, dopaquinone at 480 nm): much longer lag periods | hydroxylation by mushroom tyrosinase ([3]; extensive incubation, UV and visible absorption spectra): not hydroxylated | binding to mushroom tyrosinase ([3]; inferred from lag period): bind strongly
